The target of one assay is Acetylcholinesterase (Electrophorus electricus, UniProt O42275). Put plainly: Inhibition constant (Ki) against electric eel Acetylcholinesterase as Km/Vmax versus inhibitor concentration replot.
The next assay relates to Gallus gallus. In words: Compound was tested in vivo for antiangiogenic activity (10 microg dose/ egg) on chorioallantoic membrane of growing chick embryos. Type of assay: functional.

Results on 11 compounds are retold here after ChEMBL document CHEMBL1133210, “Synthesis of tetrakis(multifluoro-4-pyridyl)porphin derivatives as acetylcholinesterase inhibitors” (Bioorg Med Chem Lett, 2000).

Chain of Acetylcholinesterase (O42275 whole entry): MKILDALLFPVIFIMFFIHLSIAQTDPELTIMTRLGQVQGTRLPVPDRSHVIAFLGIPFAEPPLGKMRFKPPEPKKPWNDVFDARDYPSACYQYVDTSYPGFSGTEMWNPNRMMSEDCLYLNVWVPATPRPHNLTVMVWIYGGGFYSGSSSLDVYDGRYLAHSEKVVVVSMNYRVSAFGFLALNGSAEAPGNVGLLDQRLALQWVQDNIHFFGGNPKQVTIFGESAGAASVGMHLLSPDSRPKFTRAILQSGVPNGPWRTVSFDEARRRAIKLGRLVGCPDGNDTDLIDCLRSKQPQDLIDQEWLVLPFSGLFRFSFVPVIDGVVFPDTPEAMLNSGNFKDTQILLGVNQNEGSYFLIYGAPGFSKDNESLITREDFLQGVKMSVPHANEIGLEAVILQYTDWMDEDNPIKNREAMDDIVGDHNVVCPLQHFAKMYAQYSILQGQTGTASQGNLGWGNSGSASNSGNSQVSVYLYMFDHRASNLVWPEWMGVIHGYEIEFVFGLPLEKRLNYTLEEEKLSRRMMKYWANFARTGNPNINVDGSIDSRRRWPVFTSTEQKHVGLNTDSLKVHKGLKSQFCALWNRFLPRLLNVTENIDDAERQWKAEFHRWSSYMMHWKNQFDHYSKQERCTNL

`Fc1ccccc1-c1c2nc(c(-c3ccccc3F)c3ccc([nH]3)c(-c3ccccc3F)c3ccc([nH]3)c(-c3ccccc3F)c3nc1C=C3)C=C2`: at Acetylcholinesterase, the Ki was determined as 50.9 µM. `C[n+]1ccc(-c2c3nc(c(-c4cc[n+](C)cc4F)c4ccc([nH]4)c(-c4cc[n+](C)cc4F)c4ccc([nH]4)c(-c4cc[n+](C)cc4F)c4nc2C=C4)C=C3)c(F)c1.Cc1ccc(S(=O)(=O)[O-])cc1.Cc1ccc(S(=O)(=O)[O-])cc1.Cc1ccc(S(=O)(=O)[O-])cc1.Cc1ccc(S(=O)(=O)[O-])cc1` displayed a Ki at Acetylcholinesterase of 3.06 µM. In the assay on Gallus gallus, this compound came in with an Inhibition of 60%.

Turning to `Fc1cnc(F)c(F)c1-c1c2nc(c(-c3c(F)cnc(F)c3F)c3ccc([nH]3)c(-c3c(F)cnc(F)c3F)c3ccc([nH]3)c(-c3c(F)cnc(F)c3F)c3nc1C=C3)C=C2`, the Ki at Acetylcholinesterase stood at 2.85 µM. Compound `Oc1ccc(O)c(-c2c3nc(c(-c4cc(O)ccc4O)c4ccc([nH]4)c(-c4cc(O)ccc4O)c4ccc([nH]4)c(-c4cc(O)ccc4O)c4nc2C=C4)C=C3)c1` displayed a Ki on Acetylcholinesterase of 2.5 µM. At Acetylcholinesterase, `Oc1cccc(-c2c3nc(c(-c4cccc(O)c4)c4ccc([nH]4)c(-c4cccc(O)c4)c4ccc([nH]4)c(-c4cccc(O)c4)c4nc2C=C4)C=C3)c1` returned a Ki of 29.6 µM. The compound `Fc1nc(F)c(F)c(-c2c3nc(c(-c4c(F)c(F)nc(F)c4F)c4ccc([nH]4)c(-c4c(F)c(F)nc(F)c4F)c4ccc([nH]4)c(-c4c(F)c(F)nc(F)c4F)c4nc2C=C4)C=C3)c1F` displayed a Ki at Acetylcholinesterase of 7.29 µM. Consider `Oc1ccccc1-c1c2nc(c(-c3ccccc3O)c3ccc([nH]3)c(-c3ccccc3O)c3ccc([nH]3)c(-c3ccccc3O)c3nc1C=C3)C=C2`, for which the Ki at Acetylcholinesterase was determined as 18.3 µM. For the compound `Fc1cnccc1-c1c2nc(c(-c3ccncc3F)c3ccc([nH]3)c(-c3ccncc3F)c3ccc([nH]3)c(-c3ccncc3F)c3nc1C=C3)C=C2`, the affinity at Acetylcholinesterase corresponds to a Ki of 5.08 µM. On the same count and under the same terms, with `Fc1ccc(-c2c3nc(c(-c4ccc(F)cc4F)c4ccc([nH]4)c(-c4ccc(F)cc4F)c4ccc([nH]4)c(-c4ccc(F)cc4F)c4nc2C=C4)C=C3)c(F)c1` the figure was 0.012 µM; with `Fc1cccc(-c2c3nc(c(-c4cccc(F)c4)c4ccc([nH]4)c(-c4cccc(F)c4)c4ccc([nH]4)c(-c4cccc(F)c4)c4nc2C=C4)C=C3)c1`, 9.7 µM.

Take `Fc1cccc(F)c1-c1c2nc(c(-c3c(F)cccc3F)c3ccc([nH]3)c(-c3c(F)cccc3F)c3ccc([nH]3)c(-c3c(F)cccc3F)c3nc1C=C3)C=C2`: the Ki at Acetylcholinesterase came out at 0.005 µM.

In general, Ki refers to the equilibrium dissociation constant of an inhibitor or competing ligand from its target. Read a low Ki as a stronger hold on the target. The term Inhibition denotes the share of the control response that was lost under treatment.
